Reference: patent US20190032014A1, “USING MICROBIOTA METABOLITES TO DIFFERENTIATE NAÏVE T-CELLS AND RELATED METHODS TO INDUCE OR PREVENT INFLAMMATORY CONDITIONS” (THE TEXAS A&M UNIVERSITY SYSTEM, priority 2016, published 2019)
“Also recorded” adds a separate entry of the source. Like-named read-outs stand apart in the source and are kept apart here.

Legend:
CD4+ CD25− naïve T cells = assay: In vitro naïve T cell differentiation, Treg-skew (FoxP3+ by FACS); type: cell-based, C57BL/6 mice; settings: for effect on % FoxP3+ cells / Treg differentiation: vs DMF control; for % FoxP3+ cells: indole less than 500 μM
Description: Mesenteric lymph node (MLN) and spleen are harvested from WT or FOXP3^EGFP C57Bl/6 mice and homogenized. Spleen tissue is subjected to red blood cell lysis and pooled into a single cell suspension for counting. Counted cells are resuspended in sterile FACS buffer (PBS++ with 05% bovine serum albumin) at a concentration of ˜5×10^7 cells/mL and stained for 45 minutes at 4° C. with anti-CD4 and anti-CD25 fluorophore-conjugated monoclonal antibodies (mAb). After two washes, the stained cells are resuspended at ˜6×10^6 cells/mL in FACS buffer and immediately sorted. […] TDMMs are solubilized in DMF at 2 M and used at desired concentrations (e.g., 0.01, 0.1, 0.5 and 1.0 mM) in growth media; DMF in growth media (0.05%) is used as a solvent control.
The % of Treg or Th17 cells are determined based on the expression of signature transcription factors, FoxP3 and Rorγt, respectively. In addition, signature cytokine markers for Treg and Th17, TGFβ or IL-17, respectively, among others are measured using intracellular cytokine staining. Since it is possible that a cell could be positive for FoxP3 and still express some IL-17, the final % of Tregs are determined as the cell population that is FoxP3+TGFβ+ Rorγt-IL-17−. Similarly, the % of Th17 cells are determined as the population that is FoxP3-TGFβ− Rorγt+IL-17+.
CD4+ CD25− T cells were isolated to high purity (>98%) from the pooled spleen and mesenteric lymph nodes of C57BL/6 mice (Jackson Labs) with a BD FACS Aria II flow cytometer. Fc Block (BD), αCD4-efluor450 (eBioscience clone GK1.5) and αCD25-PECy7 (eBioscience clone PC61.5) antibodies were used for staining before sorting.
For Th1-skew: 5 ng/mL IL-12 (Peprotech cat. #210-12) and 10 µg/mL αIL-4 (BioXCell clone 11B11) were added to culture. For Th2-skew: 10 ng/mL IL-4 (Peprotech) and 10 μg/mL αIFN-γ (BioXCell clone R4-6A2) were added to culture. For Th17-skew: 10 ng/mL IL-6 (Peprotech), 5 ng/mL IL-23 (R&D), 0.5 ng/mL TGF-β (Peprotech), 10 μg/mL al-4 (BioXCell clone 11B11), and 10 μg/mL αIFN-γ (BioXCell clone R4-6A2) were added to culture. For Treg-skew: 2 ng/mL TGF-β (Peprotech) and 100 U/mL IL-2 (Roche) were added to culture. Sodium Propionate, sodium acetate, sodium butyrate and sodium chloride (all from Sigma-Aldrich) were solubilized in media and added to culture. Indole was solubilized in DMF (both from Sigma-Aldrich) at 2M and brought to final concentration in media. MGCD0103 (Selleck Chemicals) was solubilized in DMF at 2 mM and brought to final concentration in media. A 0.05% DMF solvent control was used for all experiments.

[1] = tested on: effector T cell proliferation; assay: Suppression assay of effector T cell proliferation by iTregs; type: cell-based, mice
Description: FOXP3-EGFP naïve CD4+ CD25− cells cultured in αCD3/28 coated wells with Treg-skew cytokines and indole or solvent control were cultured for 72 hours, and assessed for FoxP3 expression and proliferation by CFSE dilution.
Specifically, FIG. 13 graphically illustrates the results of the suppression assay, showing the suppression of T-cell proliferation as determined by IL-2 production (an essential marker of T-cell proliferation) with increased proportions of Tregs added to co-cultures with effector T-cells..
After 72 h, cells are stimulated with PMA/ionomycin (10 ng/mL PMA, […] ionomycin). For flow cytometry, cells are treated with Golgi plug (Brefeldin A) for four hours and then stained with fluorophore-conjugated mAbs against both inflammatory (e.g., IL-6, IL-12, IL-17, TNF-α) and anti-inflammatory (e.g., IL-10, IL-35, TGF-β) cytokines. Samples are stained with the maximum number of antibodies. Furthermore, expression of established Treg markers (FOXP3, CD25hi, CD103, CD62L, GITR, PD-1, CD152, CD127, ICOS, Granzyme-B) [Vignali, D. A., L. W. Collison, and C. J. Workman, Nat Rev Immunol 8(7):523-32. (2008); Chen, J., et al., Int Immunopharmacol 11(5):610-7 (2011)] and markers of an inflammatory phenotype (RORγT) can be analyzed. […] The effect of the TDMMs on suppression of effector T cell proliferation is determined as described for FIG. 4. […]

NF-κB = settings: intestinal epithelial cells (IECs); Bansal et al. 2010; cited from earlier work
DSS colitis = DSS colitis model; settings: 5% DSS 7 days, then indole 7 days; wild-type vs Rag-deficient mice
Description: FIG. 32A: Wild-type C57B16 mice were treated with 5% DSS, or not, in drinking water for 7 days. […] Individual mouse weight was recorded daily throughout experiment as a measure of inflammation. FIG. 32B: Mice were treated as in FIG. 32A, only mice were Rag-deficient mice, which lack lymphocytes (T- and B-cells).
For FIG. 32A, wild-type C57B16 mice were treated with 5% DSS, or not, in drinking water for 7 days. […] Individual mouse weight was recorded daily throughout experiment as a measure of inflammation. For FIG. 32B, Rag-deficient mice, which lack lymphocytes (T- and B-cells), were treated as in FIG. 32A and individual weight was recorded.

FoxP3+ cells = assay: Homing markers (α4β7, CD62L) on iTreg cells

With `c1ccc2[nH]ccc2c1` [Indole, indole] the “increase in the % of FOXP3+ cells compared to cells exposed to 1 mM indole” value (CD4+ CD25− naïve T cells; 750 μM indole, absence of IL-4) was 4%, the “proportion of FoxP3+ iTregs” value (CD4+ CD25− naïve T cells; 1 mM indole, Treg skewing conditions, solvent control 25%) was 68.8% and the “% FoxP3+ cells with reduced / titrated TGF-β” value (CD4+ CD25− naïve T cells; TGF-β below threshold for Treg induction, low and high titrations) was “Treg induction occurs notwithstanding low levels of TGF-β; also recorded: increased the % FoxP3+ cells”. The “FoxP3 induction under Th0 conditions” value (CD4+ CD25− naïve T cells; Th0 conditions (no TGF-β)) was “induced FoxP3 even under Th0 conditions”, the “% FoxP3+ cells, indole, butyrate and 5-HI all combined” value (CD4+ CD25− naïve T cells; Treg skewing conditions) was “the % FoxP3+ increased again” and the “% FoxP3+ cells, indole combined with 5-HI” value (CD4+ CD25− naïve T cells; Treg skewing conditions, vs 5-HI alone) was “negated the inhibitory effects of 5-HI on % FoxP3+ cells”. For the same compound, the “effect on % FoxP3+ cells / Treg differentiation” value (CD4+ CD25− naïve T cells; Treg skewing conditions) was “significantly increased the % of FoxP3+ cells”, the “effect on % FoxP3+ cells / Treg differentiation” value (CD4+ CD25− naïve T cells; Treg skewing conditions, listed as indole) was “dose-dependent; also recorded: strong pro-Treg response; also recorded: significantly increased the % FoxP3+ cells” and the “% FoxP3+ cells” value (CD4+ CD25− naïve T cells; IL-4 6 ng/mL) was 25%. For the same compound, the “% FoxP3+ cells” value (CD4+ CD25− naïve T cells; IL-4 10 ng/mL) was 28%, the “per-cell expression of FOXP3 (GFP)” value (CD4+ CD25− naïve T cells; indole-induced iTregs, pre- and post-sort, 72 hours) was “higher per-cell expression of FOXP3 (GFP) both pre- and post-sort” and the “expansion of Tregs (Foxp3+ %) at standard TGF-β dose” value (CD4+ CD25− naïve T cells; standard TGF-β dose) was “doubles”. The “level of FoxP3 expression (MFI)” value (CD4+ CD25− naïve T cells; vs solvent control) was “significantly increased”, the “suppression of effector T cell proliferation” value ([1]; indole-conditioned Tregs, 72-hour suppression assay, vs control iTregs (DMF)) was “suppress effector T cell proliferation function” and the “suppression of T-cell proliferation (IL-2 production)” value ([1]; indole-induced iTregs vs nTregs or butyrate-induced iTregs) was “stronger suppressive characteristics, than nTregs or iTregs induced by butyrate”. For the same compound, the “NF-κB activation and indicators of inflammation” value (NF-κB) was “inhibits NF-κB activation and attenuates indicators of inflammation”, the “colitis (mouse weight as measure of inflammation)” value (DSS colitis) was “inhibits colitis in a T-cell-dependent manner” and the “% of α4β7+ in FoxP3+ cells” value (FoxP3+ cells; indole alone) was “increases the % of α4β7+ in FoxP3+ cells”. The “% of α4β7+ in FoxP3+ cells” value (FoxP3+ cells; indole combined with retinoic acid (RA)) was “amplified when combined with retinoic acid (RA)”, the “% α4β7+ on iTreg cells” value (FoxP3+ cells; indole with acetate, propionate or butyrate at multiple concentrations) was “increases α4β7 in the presence of SCFAs, except for high levels of butyrate” and the “CD62L+ on FoxP3+ cells” value (FoxP3+ cells; with and without retinoic acid (RA)) was “increase of CD62L+ on FoxP3+ cells with and without combination with retinoic acid (RA)”. For the same compound, the FoxP3 expression (iTregs; control (DMF induced) iTregs in the presence of indole, after TCR stimulation (αCD3/28), without indole 9.3%) was 26.1%, the FoxP3 expression (iTregs; control (DMF induced) iTregs in the presence of indole, first value, before TCR stimulation) was 52.8% and the FoxP3 expression (iTregs; indole-induced iTregs cultured three days with 1 mM indole, first value) was 64.2%. For the same compound, the FoxP3 expression (iTregs; indole-induced iTregs cultured three days with 1 mM indole, second value, after TCR stimulation) was 52.2%, the FoxP3 expression (iTregs; indole-induced iTregs cultured three days with DMF, first value) was 63% and the FoxP3 expression (iTregs; indole-induced iTregs cultured three days with DMF, second value, after TCR stimulation) was 24.9%.
